{"source": "PubChem BioAssay (NCI)", "assay_in_all_cases": "growth of human tumour cells (NCI), 48 h", "key": {"OVCAR-5 ovarian": {"test_system": "OVCAR-5 ovarian"}, "OVCAR-3 ovarian": {"test_system": "OVCAR-3 ovarian"}, "CCRF-CEM leukemia": {"test_system": "CCRF-CEM leukemia"}, "NCI-H522 lung": {"test_system": "NCI-H522 lung"}, "HOP-92 NSCLC": {"test_system": "HOP-92 NSCLC"}, "MDA-MB-231 breast": {"test_system": "MDA-MB-231 breast"}, "A549 NSCLC": {"test_system": "A549 NSCLC"}, "HCC-2998 colon": {"test_system": "HCC-2998 colon"}, "DU-145 prostate": {"test_system": "DU-145 prostate"}, "MDA-N": {"test_system": "MDA-N"}}, "note": "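1) Cells in 96-well plates. 2) Compound, 48 h, 5 concentrations. 3) Linear interpolation between surrounding doses. 4) Unreached endpoint = highest concentration. GI50 marks 50% less growth. TGI denotes the concentration required for complete inhibition of growth.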"}
{"smiles": "O=C(Nc1ccc(-n2cc(-c3ccncc3)c(-c3ccc(O)c(Cl)c3)n2)cc1)Nc1ccc(Cl)c(C(F)(F)F)c1", "values": [{"measurement": "GI50", "setting": "OVCAR-5 ovarian", "value": 5.29, "unit": "µM"}, {"measurement": "TGI", "setting": "OVCAR-5 ovarian", "value": 19.1, "unit": "µM"}, {"measurement": "GI50", "setting": "OVCAR-3 ovarian", "value": 3.23, "unit": "µM"}, {"measurement": "TGI", "setting": "OVCAR-3 ovarian", "value": 10.9, "unit": "µM"}, {"measurement": "GI50", "setting": "CCRF-CEM leukemia", "value": 3.2, "unit": "µM"}, {"measurement": "TGI", "setting": "CCRF-CEM leukemia", "value": 22.3, "unit": "µM"}, {"measurement": "GI50", "setting": "NCI-H522 lung", "value": 2540, "unit": "nM"}, {"measurement": "TGI", "setting": "NCI-H522 lung", "value": 13.4, "unit": "µM"}, {"measurement": "GI50", "setting": "HOP-92 NSCLC", "value": 1820, "unit": "nM"}, {"measurement": "TGI", "setting": "HOP-92 NSCLC", "value": 5, "unit": "µM"}, {"measurement": "GI50", "setting": "MDA-MB-231 breast", "value": 3.2, "unit": "µM"}, {"measurement": "TGI", "setting": "MDA-MB-231 breast", "value": 12.5, "unit": "µM"}, {"measurement": "GI50", "setting": "A549 NSCLC", "value": 3.6, "unit": "µM"}, {"measurement": "TGI", "setting": "A549 NSCLC", "value": 17.4, "unit": "µM"}, {"measurement": "GI50", "setting": "HCC-2998 colon", "value": 4.65, "unit": "µM"}, {"measurement": "TGI", "setting": "HCC-2998 colon", "value": 20.1, "unit": "µM"}, {"measurement": "GI50", "setting": "DU-145 prostate", "value": 4.99, "unit": "µM"}, {"measurement": "TGI", "setting": "DU-145 prostate", "value": 18, "unit": "µM"}]}
{"smiles": "c1ccc(C(NC2=NCCO2)c2ccccc2)cc1", "values": [{"measurement": "TGI", "setting": "OVCAR-5 ovarian", "value": "> 10", "unit": "µM"}, {"measurement": "TGI", "setting": "OVCAR-3 ovarian", "value": "> 10", "unit": "µM"}, {"measurement": "TGI", "setting": "CCRF-CEM leukemia", "value": "> 10", "unit": "µM"}, {"measurement": "TGI", "setting": "NCI-H522 lung", "value": "> 10", "unit": "µM"}, {"measurement": "TGI", "setting": "MDA-N", "value": "> 10", "unit": "µM"}, {"measurement": "TGI", "setting": "MDA-MB-231 breast", "value": "> 10", "unit": "µM"}, {"measurement": "TGI", "setting": "A549 NSCLC", "value": "> 10", "unit": "µM"}, {"measurement": "TGI", "setting": "HCC-2998 colon", "value": "> 10", "unit": "µM"}, {"measurement": "TGI", "setting": "DU-145 prostate", "value": "> 10", "unit": "µM"}]}
{"smiles": "C/C(=N\\NC(=S)N(C)C)c1nc2ncccc2[nH]1", "values": [{"measurement": "TGI", "setting": "OVCAR-5 ovarian", "value": "> 100", "unit": "µM"}, {"measurement": "TGI", "setting": "NCI-H522 lung", "value": 91.7, "unit": "µM"}, {"measurement": "TGI", "setting": "MDA-N", "value": "> 100", "unit": "µM"}, {"measurement": "TGI", "setting": "HOP-92 NSCLC", "value": 0.928, "unit": "µM"}, {"measurement": "TGI", "setting": "MDA-MB-231 breast", "value": "> 100", "unit": "µM"}, {"measurement": "TGI", "setting": "A549 NSCLC", "value": "> 100", "unit": "µM"}, {"measurement": "TGI", "setting": "DU-145 prostate", "value": "> 100", "unit": "µM"}]}
{"smiles": "OCCCNc1ncnc2[nH]ncc12", "values": [{"measurement": "TGI", "setting": "OVCAR-5 ovarian", "value": "> 100", "unit": "µM"}, {"measurement": "TGI", "setting": "OVCAR-3 ovarian", "value": "> 100", "unit": "µM"}, {"measurement": "TGI", "setting": "CCRF-CEM leukemia", "value": "> 100", "unit": "µM"}, {"measurement": "TGI", "setting": "NCI-H522 lung", "value": "> 100", "unit": "µM"}, {"measurement": "TGI", "setting": "MDA-N", "value": "> 100", "unit": "µM"}, {"measurement": "TGI", "setting": "HOP-92 NSCLC", "value": "> 100", "unit": "µM"}, {"measurement": "TGI", "setting": "MDA-MB-231 breast", "value": "> 100", "unit": "µM"}, {"measurement": "TGI", "setting": "A549 NSCLC", "value": "> 100", "unit": "µM"}, {"measurement": "TGI", "setting": "HCC-2998 colon", "value": "> 100", "unit": "µM"}, {"measurement": "TGI", "setting": "DU-145 prostate", "value": "> 100", "unit": "µM"}]}
{"smiles": "C/C(=N\\NC(=S)NCCCCNC(=S)N/N=C(\\C)c1ccccn1)c1ccccc1", "values": [{"measurement": "TGI", "setting": "OVCAR-5 ovarian", "value": "> 85.6", "unit": "µM"}, {"measurement": "TGI", "setting": "OVCAR-3 ovarian", "value": "> 65.2", "unit": "µM"}, {"measurement": "TGI", "setting": "NCI-H522 lung", "value": 30.7, "unit": "µM"}, {"measurement": "TGI", "setting": "MDA-N", "value": "> 100", "unit": "µM"}, {"measurement": "TGI", "setting": "HOP-92 NSCLC", "value": "> 57.3", "unit": "µM"}, {"measurement": "TGI", "setting": "MDA-MB-231 breast", "value": "> 52.7", "unit": "µM"}, {"measurement": "TGI", "setting": "A549 NSCLC", "value": "> 58", "unit": "µM"}, {"measurement": "TGI", "setting": "HCC-2998 colon", "value": "> 100", "unit": "µM"}, {"measurement": "TGI", "setting": "DU-145 prostate", "value": "> 50", "unit": "µM"}]}
{"smiles": "CC(C)C(=O)CC(c1ccc(Cl)cc1)N1N=C(C(C)C)CC1c1ccc(Cl)cc1", "note": "(stereo unspecified)", "values": [{"measurement": "GI50", "setting": "OVCAR-3 ovarian", "value": 45.6, "unit": "µM"}, {"measurement": "TGI", "setting": "OVCAR-3 ovarian", "value": "> 100", "unit": "µM"}, {"measurement": "TGI", "setting": "CCRF-CEM leukemia", "value": "> 69.8", "unit": "µM"}, {"measurement": "TGI", "setting": "NCI-H522 lung", "value": "> 100", "unit": "µM"}, {"measurement": "TGI", "setting": "HOP-92 NSCLC", "value": "> 100", "unit": "µM"}, {"measurement": "TGI", "setting": "A549 NSCLC", "value": "> 100", "unit": "µM"}, {"measurement": "TGI", "setting": "HCC-2998 colon", "value": "> 100", "unit": "µM"}]}
{"smiles": "Cc1c(Cl)nc(Cl)nc1Cl", "values": [{"measurement": "TGI", "setting": "OVCAR-5 ovarian", "value": 3.46, "unit": "µM"}, {"measurement": "TGI", "setting": "OVCAR-3 ovarian", "value": 3.25, "unit": "µM"}, {"measurement": "TGI", "setting": "CCRF-CEM leukemia", "value": 0.676, "unit": "µM"}, {"measurement": "TGI", "setting": "NCI-H522 lung", "value": 0.118, "unit": "µM"}, {"measurement": "TGI", "setting": "MDA-N", "value": 6.85, "unit": "µM"}, {"measurement": "TGI", "setting": "HOP-92 NSCLC", "value": 4.99, "unit": "µM"}, {"measurement": "TGI", "setting": "MDA-MB-231 breast", "value": 2.99, "unit": "µM"}, {"measurement": "TGI", "setting": "A549 NSCLC", "value": 7.34, "unit": "µM"}, {"measurement": "TGI", "setting": "HCC-2998 colon", "value": 2.73, "unit": "µM"}, {"measurement": "TGI", "setting": "DU-145 prostate", "value": 11.1, "unit": "µM"}]}
{"smiles": "CCCn1cc2c(SC)nc(SC)nc2n1", "values": [{"measurement": "TGI", "setting": "OVCAR-5 ovarian", "value": "> 100", "unit": "µM"}, {"measurement": "TGI", "setting": "CCRF-CEM leukemia", "value": "> 100", "unit": "µM"}, {"measurement": "TGI", "setting": "HOP-92 NSCLC", "value": "> 100", "unit": "µM"}, {"measurement": "TGI", "setting": "A549 NSCLC", "value": "> 100", "unit": "µM"}, {"measurement": "TGI", "setting": "HCC-2998 colon", "value": "> 100", "unit": "µM"}]}
{"smiles": "Cn1ccc(C(=O)NCCN(CCNC(=O)c2ccn(C)c(=O)c2O)CCNC(=O)c2ccn(C)c(=O)c2O)c(O)c1=O", "values": [{"measurement": "TGI", "setting": "OVCAR-5 ovarian", "value": "> 100", "unit": "µM"}, {"measurement": "TGI", "setting": "OVCAR-3 ovarian", "value": "> 100", "unit": "µM"}, {"measurement": "TGI", "setting": "CCRF-CEM leukemia", "value": "> 100", "unit": "µM"}, {"measurement": "TGI", "setting": "NCI-H522 lung", "value": "> 100", "unit": "µM"}, {"measurement": "TGI", "setting": "MDA-N", "value": "> 100", "unit": "µM"}, {"measurement": "TGI", "setting": "HOP-92 NSCLC", "value": "> 100", "unit": "µM"}, {"measurement": "TGI", "setting": "MDA-MB-231 breast", "value": "> 100", "unit": "µM"}, {"measurement": "TGI", "setting": "A549 NSCLC", "value": "> 100", "unit": "µM"}, {"measurement": "TGI", "setting": "HCC-2998 colon", "value": "> 100", "unit": "µM"}, {"measurement": "TGI", "setting": "DU-145 prostate", "value": "> 100", "unit": "µM"}]}
{"smiles": "CCOC(=O)C(Cc1cn(C(C)=O)c2ccccc12)P(=O)(OCC)OCC", "note": "(stereo unspecified)", "values": [{"measurement": "TGI", "setting": "OVCAR-5 ovarian", "value": "> 100", "unit": "µM"}, {"measurement": "TGI", "setting": "OVCAR-3 ovarian", "value": "> 100", "unit": "µM"}, {"measurement": "TGI", "setting": "NCI-H522 lung", "value": "> 100", "unit": "µM"}, {"measurement": "TGI", "setting": "MDA-N", "value": "> 100", "unit": "µM"}, {"measurement": "TGI", "setting": "HOP-92 NSCLC", "value": "> 100", "unit": "µM"}, {"measurement": "TGI", "setting": "MDA-MB-231 breast", "value": "> 100", "unit": "µM"}, {"measurement": "TGI", "setting": "A549 NSCLC", "value": "> 100", "unit": "µM"}, {"measurement": "TGI", "setting": "HCC-2998 colon", "value": "> 100", "unit": "µM"}, {"measurement": "TGI", "setting": "DU-145 prostate", "value": "> 100", "unit": "µM"}]}
{"smiles": "Cc1[nH]c(=O)[nH]c(=O)c1/C=C/C(=O)NC(CO)CS(=O)Cc1ccccc1", "note": "(stereo unspecified)", "values": [{"measurement": "TGI", "setting": "OVCAR-5 ovarian", "value": "> 300", "unit": "µM"}, {"measurement": "TGI", "setting": "OVCAR-3 ovarian", "value": "> 300", "unit": "µM"}, {"measurement": "TGI", "setting": "CCRF-CEM leukemia", "value": "> 300", "unit": "µM"}, {"measurement": "TGI", "setting": "NCI-H522 lung", "value": "> 300", "unit": "µM"}, {"measurement": "TGI", "setting": "HOP-92 NSCLC", "value": "> 300", "unit": "µM"}, {"measurement": "TGI", "setting": "A549 NSCLC", "value": "> 300", "unit": "µM"}, {"measurement": "TGI", "setting": "HCC-2998 colon", "value": "> 300", "unit": "µM"}]}
